Results reported in patent US8329617B2, “Compositions and methods for synergistic manipulation of plant and insect defenses” (Plant Bioscience Limited, priority 2007, dated 2012).

How the values were obtained:
Bemisia tabaci, GUA MIX = assay: Glasshouse simulator trial: B. tabaci pupae protein on tomato plants treated with cis-jasmone and PBO; format: in vivo; conditions: for μg (Av) Total Protein (B. tabaci pupae): simulator, ten tomato plants per treatment, ten adult whiteflies per plant, ~16 days
Method: (§1) In all bioassay experiments the control plants were sprayed with deionised water. Initially seven treatments were used (Table 1) to test all chemical variables. All treatments were applied hydraulically with a spray simulator after which the plants were separated according to treatment (with cis-jasmone controls being separated) and left for 2 hours prior to insect application.
(§2) Analysis of protein in each treatment was conducted using Bradford Reagent: the data were analysed using the computer programme ‘GraFit’ (Erithacus software, Berkeley). To calculate the calibration curve a single logarithmic curve was used with regression analysis taking the values of the treatment wells (averages of the three readings taken: technical replicates).
A new method for the investigation of the development of whitefly to the pupal stage on tomatoes and cotton was used. […] These were checked for protein after ˜16 days using Bradford reagent.
Adults were added to the plant 2 h after treatment, and removed after 24 h. The eggs laid were then left for 16-18 days until they reached the pupal stage. The total pupal protein on the plant was tested using the Bradford reagent.
As described above 10 adult females were released on to each tomato plant, ten/treatment and after ˜16 days pupae were removed using a scalpel blade. These were checked for total protein using Bradford reagent. Plants were put into glasshouse simulators (one/treatment) and kept at 28° C., 12 L: […] and 80% R.H.

Myzus persicae, US1L = assay: Bioassay: M. persicae protein on four pepper plants treated with cis-jasmone and PBO (1, 5 or 10 adults per plant); format: in vivo; conditions: for Av. Total Insect Protein μg: Bioassay, M. persicae (US1L), average of weeks 1 to 3; for μg (Av) Total Protein (M. persicae): four pepper plants, 7 days
Method: as §1
as §2, with “replicates). […]” for “replicates).”
To investigate developmental/fecundity effects of cis-jasmone+/−PBO E on Myzus persicae when applied to sweet peppers, one adult was added to the plants. Aphids were brushed from all plants and each leaf checked individually to ensure none remained. The aphid mass for each treatment was assessed for total protein (total from all four plants in the treatment) using Bradford reagent. The amount of aphid protein present on the plants 7 days after treatment was measured.
(§3) Myzus persicae was applied to sweet peppers at the rate of five adults were added per plant. Aphids were brushed from all plants and each leaf checked individually to ensure none remained. The aphid mass for each treatment was assessed for total protein (total from all four plants in the treatment) using Bradford reagent. The amount of aphid protein present on the plants 7 days after treatment was measured (for further information see Example 3).
as §3, with “persicae were” for “persicae was”, “of ten” for “of five”, “adults” for “adults were added”

Aphis gossypii = assay: A. gossypii protein on cotton plants treated with propyl gallate and cis-jasmone; format: in vivo; conditions: five cotton plants, 3 adult apterous aphids per plant, 7 days
whitefly (B. tabaci) = assay: Bioassay: B. tabaci pupae protein on cotton and tomato plants treated with BABA and/or PBO; format: in vivo, Bemisia tabaci; conditions: 3 mM BABA root drench, PBO E spray
Method: In all bioassay experiments the control plants were sprayed with deionised water. Initially seven treatments were used (Table 1b) to test all chemical variables. […] Analysis of protein in each treatment was conducted using Bradford Reagent: the data were analysed using the computer programme ‘GraFit’ (Erithacus software, Berkeley). To calculate the calibration curve a single logarithmic curve was used with regression analysis taking the values of the treatment wells (averages of the three readings taken: technical replicates). Laboratory tests were undertaken to compare effects of combined and single treatments of PBO and BABA on control of aphid (M. persicae) on potato, pepper, and black mustard and whitefly (B. tabaci) on cotton and tomato. All tests included untreated and blank (water) controls, and both single and combined applications of PBO and BABA. […] Adults were added to the plant 2 days after treatment, and removed after 24 h. The eggs laid were then left for 16-18 days until they reached the pupal stage. The total pupal protein on the plant was tested using the Bradford reagent.

aphid (M. persicae) = assay: Bioassay: M. persicae protein on potato, pepper and black mustard plants treated with BABA and/or PBO; format: in vivo, Myzus persicae; conditions: 3 adult apterous aphids per plant, 3 mM BABA root drench, PBO E spray, 7 days
Method: In all bioassay experiments the control plants were sprayed with deionised water. Initially seven treatments were used (Table 1b) to test all chemical variables. […] Analysis of protein in each treatment was conducted using Bradford Reagent: the data were analysed using the computer programme ‘GraFit’ (Erithacus software, Berkeley). To calculate the calibration curve a single logarithmic curve was used with regression analysis taking the values of the treatment wells (averages of the three readings taken: technical replicates). Laboratory tests were undertaken to compare effects of combined and single treatments of PBO and BABA on control of aphid (M. persicae) on potato, pepper, and black mustard and whitefly (B. tabaci) on cotton and tomato. All tests included untreated and blank (water) controls, and both single and combined applications of PBO and BABA. […] To investigate developmental/fecundity effects of BABA+/−PBO E (see Table 1) on Myzus persicae when applied to plants, adults were added to the plants and then using Bradford reagent, the amount of aphid protein present on the plants 7 days after treatment was measured. Esterase levels were also tested after the same interval to check for the possible induction of metabolic enzymes when using BABA. Aphids were brushed from all plants and each leaf checked individually to ensure none remained. The aphid mass for each treatment was weighed before total protein was assessed (total from all five plants in the treatment).

esterase = conditions: topical application of 1 ul of 0.1% PBO
Method: The esterase activity of individuals from a clone of resistant Myzus persicae was measured at zero time, then at hourly intervals following in vivo topical application of 1 ul of 0.1% PBO. […] The assay would also be continued to determine the time taken for the esterase levels to return to normal.

SMILES: CCCCOCCOCCOCc1cc2c(cc1CCC)OCO2 [PBO, 2-(2-butoxyethoxy)ethyl 6-propylpiperonyl ether]
- effect of addition of PBO to cis-jasmone on reduction of insect protein (in words) (Bemisia tabaci, GUA MIX; B. tabaci on tomato, simulator trial): potentiates the effect of cis-jasmone
- Av. Total Insect Protein μg (Bemisia tabaci, GUA MIX; Simulator, Bemisia tabaci (GUA MIX) on Tomato (Carousel), average of weeks 1 to 3): 0.156 µg
- μg (Av) Total Protein (B. tabaci pupae) (Bemisia tabaci, GUA MIX; week 1): 0.165 µg
- μg (Av) Total Protein (B. tabaci pupae) (Bemisia tabaci, GUA MIX; week 2): 0.169 µg
- μg (Av) Total Protein (B. tabaci pupae) (Bemisia tabaci, GUA MIX; week 3): 0.134 µg
- Av. Total Insect Protein μg (Myzus persicae, US1L; 1 adult/plant): 10.710 µg
- Av. Total Insect Protein μg (Myzus persicae, US1L; 5 adults/plant): 21.500 µg
- Av. Total Insect Protein μg (Myzus persicae, US1L; 10 adults/plant): 35.200 µg
- effect of addition of PBO to cis-jasmone on reduction of insect protein (in words) (Myzus persicae, US1L; M. persicae on pepper, five adults per plant): potentiates the effect of cis-jasmone
- reduction in total aphid protein (in words) (Myzus persicae, US1L; M. persicae on pepper, small scale assays, 10, 5 or 1 adult aphid per plant): no significant reduction
- μg (Av) Total Protein (M. persicae) (Myzus persicae, US1L; five adult apterous aphids per plant, week 1): 23.60 µg
- μg (Av) Total Protein (M. persicae) (Myzus persicae, US1L; five adult apterous aphids per plant, week 2): 17.29 µg
- μg (Av) Total Protein (M. persicae) (Myzus persicae, US1L; five adult apterous aphids per plant, week 3): 23.60 µg
- μg (Av) Total Protein (M. persicae) (Myzus persicae, US1L; one adult apterous aphid per plant, week 1): 13.64 µg
- μg (Av) Total Protein (M. persicae) (Myzus persicae, US1L; one adult apterous aphid per plant, week 2): 8.50 µg
- μg (Av) Total Protein (M. persicae) (Myzus persicae, US1L; one adult apterous aphid per plant, week 3): 10.01 µg
- μg (Av) Total Protein (M. persicae) (Myzus persicae, US1L; ten adult apterous aphids per plant, week 1): 38.91 µg
- μg (Av) Total Protein (M. persicae) (Myzus persicae, US1L; ten adult apterous aphids per plant, week 2): 33.2 µg
- μg (Av) Total Protein (M. persicae) (Myzus persicae, US1L; ten adult apterous aphids per plant, week 3): 33.5 µg
- Protein A (Av) (Aphis gossypii; week 1): 20.05 µg
- Protein A (Av) (Aphis gossypii; week 2): 15.1 µg
- Protein A (Av) (Aphis gossypii; week 3): 16.3 µg
- Protein WF (Av) (whitefly (B. tabaci); cotton plants, ~16 days, week 1): 0.14 µg
- Protein WF (Av) (whitefly (B. tabaci); cotton plants, ~16 days, week 2): 0.14 µg
- Protein WF (Av) (whitefly (B. tabaci); cotton plants, ~16 days, week 3): 0.15 µg
- Protein WF (Av) (whitefly (B. tabaci); tomato plants, week 1): 0.23 µg
- Protein WF (Av) (whitefly (B. tabaci); tomato plants, week 2): 0.33 µg
- Protein WF (Av) (whitefly (B. tabaci); tomato plants, week 3): 0.32 µg
- Protein A (Av) (aphid (M. persicae); five black mustard plants, week 1): 19.30 µg
- Protein A (Av) (aphid (M. persicae); five black mustard plants, week 2): 18.90 µg
- Protein A (Av) (aphid (M. persicae); five black mustard plants, week 3): 18.00 µg
- Protein A (Av) (aphid (M. persicae); five pepper plants, week 1): 22.10 µg
- Protein A (Av) (aphid (M. persicae); five pepper plants, week 2): 21.60 µg
- Protein A (Av) (aphid (M. persicae); five pepper plants, week 3): 23.50 µg
- Protein A (Av) (aphid (M. persicae); five potato plants, week 1): 17.60 µg
- Protein A (Av) (aphid (M. persicae); five potato plants, week 2): 22.30 µg
- Protein A (Av) (aphid (M. persicae); five potato plants, week 3): 19.20 µg
- time delay for esterase inhibition (esterase; individual cotton bollworms): 5 h
- optimal time delay for esterase inhibition (esterase; individual whiteflies): 10 h
